Values quoted from earlier work, collected in US8124610B2, “Sodium channel inhibitors” (Icagen Inc., priority 2007, dated 2012).

Assays:
Conditions in all cases: read-out: TTX IC-50; cited from earlier work
Nav1.8 = Nav1.8 (Homo sapiens, UniProt Q9Y5Y9)
Nav1.3 = Nav1.3 (Homo sapiens, UniProt Q9NY46)
Nav1.9 = Nav1.9 (Homo sapiens, UniProt Q9UI33)
Nav1.2 = Nav1.2 (Homo sapiens, UniProt Q99250)
Nav1.1 = Nav1.1 (Homo sapiens, UniProt P35498)
Nav1.6 = Nav1.6 (Homo sapiens, UniProt Q9UQD0)
Nav1.6, sequence (Q9UQD0 whole entry, looked up): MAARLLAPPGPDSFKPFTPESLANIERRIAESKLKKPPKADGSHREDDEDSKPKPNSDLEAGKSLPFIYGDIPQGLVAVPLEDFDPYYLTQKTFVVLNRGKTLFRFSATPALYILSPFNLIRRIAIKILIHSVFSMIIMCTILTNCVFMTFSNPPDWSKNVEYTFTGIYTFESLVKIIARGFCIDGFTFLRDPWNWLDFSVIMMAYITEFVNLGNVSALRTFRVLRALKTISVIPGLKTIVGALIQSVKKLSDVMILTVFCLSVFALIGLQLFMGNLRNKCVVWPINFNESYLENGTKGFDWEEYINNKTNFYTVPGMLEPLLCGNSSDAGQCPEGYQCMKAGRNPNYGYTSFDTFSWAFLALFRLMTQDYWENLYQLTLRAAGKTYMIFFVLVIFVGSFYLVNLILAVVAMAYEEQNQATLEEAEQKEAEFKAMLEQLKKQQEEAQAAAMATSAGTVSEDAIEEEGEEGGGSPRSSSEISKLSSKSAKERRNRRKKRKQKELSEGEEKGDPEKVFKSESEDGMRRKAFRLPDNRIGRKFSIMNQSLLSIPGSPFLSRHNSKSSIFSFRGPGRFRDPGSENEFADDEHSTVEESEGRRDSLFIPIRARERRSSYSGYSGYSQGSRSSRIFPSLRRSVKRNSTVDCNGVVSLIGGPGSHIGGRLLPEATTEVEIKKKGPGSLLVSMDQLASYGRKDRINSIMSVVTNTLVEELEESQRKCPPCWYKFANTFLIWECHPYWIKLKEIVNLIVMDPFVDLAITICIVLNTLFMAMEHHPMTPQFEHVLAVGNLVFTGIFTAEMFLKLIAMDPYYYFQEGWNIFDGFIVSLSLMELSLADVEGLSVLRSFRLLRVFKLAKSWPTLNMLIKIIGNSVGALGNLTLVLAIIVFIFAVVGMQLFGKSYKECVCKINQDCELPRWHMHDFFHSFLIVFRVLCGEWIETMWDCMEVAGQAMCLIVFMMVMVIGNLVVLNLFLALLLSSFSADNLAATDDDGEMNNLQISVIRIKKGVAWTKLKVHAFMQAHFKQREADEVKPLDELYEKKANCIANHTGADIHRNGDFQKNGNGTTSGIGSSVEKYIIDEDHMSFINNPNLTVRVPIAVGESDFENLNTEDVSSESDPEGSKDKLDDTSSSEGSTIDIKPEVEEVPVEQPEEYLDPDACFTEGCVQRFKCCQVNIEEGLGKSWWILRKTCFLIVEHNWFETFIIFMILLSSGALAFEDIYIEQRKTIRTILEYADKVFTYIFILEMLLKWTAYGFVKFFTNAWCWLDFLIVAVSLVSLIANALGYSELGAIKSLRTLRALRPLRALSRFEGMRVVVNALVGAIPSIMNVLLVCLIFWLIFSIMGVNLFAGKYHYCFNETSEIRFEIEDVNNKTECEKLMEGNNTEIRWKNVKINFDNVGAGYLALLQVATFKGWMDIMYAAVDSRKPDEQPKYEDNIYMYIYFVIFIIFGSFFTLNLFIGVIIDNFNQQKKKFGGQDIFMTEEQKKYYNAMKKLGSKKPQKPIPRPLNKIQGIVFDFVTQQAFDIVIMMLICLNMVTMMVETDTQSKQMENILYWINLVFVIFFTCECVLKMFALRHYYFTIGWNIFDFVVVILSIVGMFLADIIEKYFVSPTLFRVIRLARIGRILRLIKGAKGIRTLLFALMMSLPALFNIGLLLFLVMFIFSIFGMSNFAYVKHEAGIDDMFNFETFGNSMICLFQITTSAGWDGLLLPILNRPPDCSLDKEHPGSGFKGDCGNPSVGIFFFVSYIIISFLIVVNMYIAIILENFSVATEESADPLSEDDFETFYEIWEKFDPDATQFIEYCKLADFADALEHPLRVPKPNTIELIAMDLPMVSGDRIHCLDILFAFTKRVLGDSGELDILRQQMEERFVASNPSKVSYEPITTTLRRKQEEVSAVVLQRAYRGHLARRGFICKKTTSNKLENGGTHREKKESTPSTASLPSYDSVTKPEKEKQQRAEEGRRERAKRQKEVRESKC

Nav1.8, sequence (Q9Y5Y9 whole entry, looked up): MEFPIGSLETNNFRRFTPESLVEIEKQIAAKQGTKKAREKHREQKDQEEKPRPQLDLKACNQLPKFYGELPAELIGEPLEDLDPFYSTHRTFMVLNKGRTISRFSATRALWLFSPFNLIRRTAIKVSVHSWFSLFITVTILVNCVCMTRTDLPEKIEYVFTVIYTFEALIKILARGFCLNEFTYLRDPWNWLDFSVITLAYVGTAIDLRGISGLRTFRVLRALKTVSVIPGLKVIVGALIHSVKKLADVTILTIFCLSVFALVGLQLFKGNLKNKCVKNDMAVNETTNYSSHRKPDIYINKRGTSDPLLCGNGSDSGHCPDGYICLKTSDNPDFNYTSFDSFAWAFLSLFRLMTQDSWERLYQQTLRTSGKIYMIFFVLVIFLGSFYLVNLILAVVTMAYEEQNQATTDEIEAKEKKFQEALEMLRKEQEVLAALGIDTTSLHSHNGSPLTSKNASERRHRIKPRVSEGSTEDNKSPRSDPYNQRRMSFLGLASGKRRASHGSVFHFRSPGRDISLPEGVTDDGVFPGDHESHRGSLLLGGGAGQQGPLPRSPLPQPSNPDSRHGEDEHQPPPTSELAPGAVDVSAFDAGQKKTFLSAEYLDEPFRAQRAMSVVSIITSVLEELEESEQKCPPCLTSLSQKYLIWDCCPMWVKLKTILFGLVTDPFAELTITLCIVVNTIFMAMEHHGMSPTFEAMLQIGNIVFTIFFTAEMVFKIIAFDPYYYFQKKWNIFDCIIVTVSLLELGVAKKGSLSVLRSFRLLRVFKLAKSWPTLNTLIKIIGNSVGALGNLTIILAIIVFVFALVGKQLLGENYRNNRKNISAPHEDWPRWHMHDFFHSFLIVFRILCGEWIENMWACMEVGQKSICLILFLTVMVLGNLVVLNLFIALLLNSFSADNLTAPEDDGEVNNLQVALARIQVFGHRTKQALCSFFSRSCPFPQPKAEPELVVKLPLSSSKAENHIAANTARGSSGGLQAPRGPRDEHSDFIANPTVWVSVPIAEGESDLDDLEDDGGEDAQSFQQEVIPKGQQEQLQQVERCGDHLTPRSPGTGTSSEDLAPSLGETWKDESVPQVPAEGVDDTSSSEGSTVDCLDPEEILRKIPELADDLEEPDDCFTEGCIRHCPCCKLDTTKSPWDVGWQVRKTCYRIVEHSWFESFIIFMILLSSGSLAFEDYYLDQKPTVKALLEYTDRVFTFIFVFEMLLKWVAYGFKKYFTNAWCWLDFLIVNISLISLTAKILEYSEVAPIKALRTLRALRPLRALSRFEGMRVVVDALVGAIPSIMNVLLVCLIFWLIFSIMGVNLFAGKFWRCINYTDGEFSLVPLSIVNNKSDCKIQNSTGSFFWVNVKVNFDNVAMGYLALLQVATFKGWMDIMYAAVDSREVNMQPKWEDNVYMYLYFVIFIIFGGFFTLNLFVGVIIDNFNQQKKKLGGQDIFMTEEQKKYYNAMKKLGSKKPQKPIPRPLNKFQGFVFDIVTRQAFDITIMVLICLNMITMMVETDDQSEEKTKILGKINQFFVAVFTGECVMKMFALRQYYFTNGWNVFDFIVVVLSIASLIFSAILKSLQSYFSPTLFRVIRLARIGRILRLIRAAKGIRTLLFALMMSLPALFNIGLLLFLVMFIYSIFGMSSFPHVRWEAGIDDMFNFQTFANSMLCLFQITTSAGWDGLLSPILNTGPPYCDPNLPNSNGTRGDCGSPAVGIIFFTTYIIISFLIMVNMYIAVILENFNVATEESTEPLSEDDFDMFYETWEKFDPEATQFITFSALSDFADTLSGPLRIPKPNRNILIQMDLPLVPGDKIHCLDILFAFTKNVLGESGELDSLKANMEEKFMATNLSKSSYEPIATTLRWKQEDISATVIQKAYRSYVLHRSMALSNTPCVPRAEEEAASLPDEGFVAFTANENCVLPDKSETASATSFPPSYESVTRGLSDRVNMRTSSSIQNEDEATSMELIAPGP

NC1=N[C@H](O)[C@H]2[C@H]3O[C@]4(O)O[C@@H]([C@@H](O)[C@@]2(N1)[C@@H]4O)[C@]3(O)CO [TTX, tetrodotoxin]
IC50 (Nav1.8): 50 µM
IC50 (Nav1.3): 15 nM
IC50 (Nav1.9): 1000 nM
IC50 (Nav1.2): 10 nM
IC50 (Nav1.1): 10 nM
IC50 (Nav1.6): 6 nM
